Test results as given in US20240148895A1, “ANTIBODY-DRUG CONJUGATE” (Eisai R&D Management Co., Ltd., priority 2022, published 2024).
Read-outs that look alike come from different tables or passages of the source.

How the values were obtained:
[1] = system: AsPC-1/Cas9 cell line; assay: AsPC-1/Cas9 growth inhibition assay; assay type: cell-based, human; conditions: AsPC-1/Cas9 cells, 5 days culture, CellTiter Glo 2.0, read-out: Absolute IC50—Day 5 (nM) AsPC-1 Cas9
Procedure: The human pancreatic cancer cell line AsPC-1 (ATCC Number CRL1682) was infected with Edit-R Lentiviral hCMV-Blast-Cas9 Nuclease Particle (Dharmacon, VCAS10124) in the presence of 8 μg/ml of Hexadimethrine bromide (Sigma, H9268), and after 24 hours it was exposed to 10 μg/ml of Blastcidin S (Thermo, A11139) to remove the uninfected cells, thereby establishing an AsPC-1/Cas9 cell line. The cells were maintenance cultured in a 5% CO2 incubator (37° C.) using RPMI-1640 (FujiFilm-Wako Pure Chemical Industries) containing 10% fetal bovine serum (FBS: SIGMA 173012) and penicillin/streptomycin (FujiFilm-Wako Pure Chemical Industries) (hereunder referred to simply as “culture medium”). After adding 45 μL of AsPC-1/Cas9 cell suspension prepared to 2.0×10^4 cells/mL using culture medium into each well of a 384-well plate (Greiner 781091), the cells were cultured overnight in a 5% CO2 incubator (37° C.). On the following day, 5 μL of the test substance diluted with culture medium was added to each well, and culturing was continued for 5 days in a 5% CO2 incubator (37° C.). Next, 25 μL of CellTiter Glo™ 2.0 (Promega) was added to each well, and the plate contents were mixed for 5 minutes using a plate mixer. The plate was stationed for 10 minutes at room temperature while shielded from light, and then the luminous intensity was measured with an ENVISION™ (Perkin-Elmer). The luminescence value of the wells with addition of test substance was determined as a relative value, with 100% as the luminescence value of the wells with cells but without addition of the test substance, and 0% as the luminescence value of the wells without cells. A plot of test substance concentration against luminescence value % approximated a 4-parameter logistic curve, and the test substance concentration necessary for 50% inhibition of cell growth (Absolute IC50) was calculated, and is shown in Table 4.

[2] = target: HiBiT tagged BRD4-BD1 protein in HEK293/LgBiT/hPGK/HiBiT-BRD4-BD1 cells (Homo sapiens, UniProt O60885); assay: BET BD1 domain degradation assay; assay type: cell-based; set-up: HiBit-linker-BRD4 BD1(1-209); host or cells: HEK293 (ATCC CRL-1573) stably transduced with LgBiT and HiBiT-BRD4-BD1; conditions: concentration for 50% reduction in HiBiT-BRD4-BD1 protein level, 3 hours, read-out: Absolute DC50—3 h (nM) HEK293_HiBiT-BRD4-BD1
Excerpt: HEK293/LgBiT/hPGK/HiBiT-BRD4-BD1 cells were established by introducing LgBiT and HiBiT-BRD4-BD1 into the human fetus renal cell line HEK293 (ATCC Number CRL-1573). LgBiT was introduced using lentivirus vector LV[Exp]-Bsd-EFS>{LgBiT}, and HiBiT-BRD4-BD1 was introduced with lentivirus vector LV[Exp]-Puro-hPGK>{HiBit-linker-BRD4 BD1(1-209)}. The vector plasmids LV[Exp]-Bsd-EFS>{LgBiT} and LV[Exp]-Puro-hPGK>{HiBit-linker-BRD4_BD1(1-209)} were constructed by VectorBuilder Co. The lentivirus was produced using a Mission Lentivirus Packaging Mix (Sigma) according to the manufacturer's protocol. Viral infection and drug selection of infected cells were carried out by the following published method (Akagi T. et. al, PNAS 2003; 100:13567-72). The cells were maintenance cultured in a 5% CO2 incubator (37° C.), using culture medium. A 45 μL portion of cell suspension of HEK293/LgBiT/hPGK/HiBiT-BRD4-BD1 cells prepared to 6.7×10^4 cells/mL using culture medium was added to each well of a collagen I-coated 384-well plate (Falcon 356667), and the cells were cultured overnight in a 5% CO2 incubator (37° C.). On the following day, 5 μL of test substance diluted with RPMI-1640 (FujiFilm-Wako Pure Chemical Industries) containing 10% fetal bovine serum (FBS: SIGMA 173012) and penicillin/streptomycin (FujiFilm-Wako Pure Chemical Industries) was added to each well, and culturing was continued for 3 hours in a 5% CO2 incubator (37° C.). The luminous intensity was measured using a Nono-Glo HiBiT Lytic Detection System (Promega), and the intracellular HiBiT tagged BRD4-BD1 protein level was calculated. After culturing, 25 μL of measuring reagent was added to each well and the plate contents were mixed for 5 minutes using a plate mixer. The plate was stationed for 10 minutes at room temperature while shielded from light, and then the luminous intensity was measured with an ENVISION′ (Perkin-Elmer). The luminescence value of the wells with addition of test substance was determined as a relative value, with 100% as the luminescence value of the wells with cells but without addition of the test substance, and 0% as the luminescence value of the wells without cells. A plot of test substance concentration against luminescence value % approximated a 4-parameter logistic curve, and the test substance concentration necessary for 50% reduction in protein level (Absolute DC50) was calculated and is shown in Table 4.

Row | IC50 ([1]; Homo sapiens, ASPC1, 120 h) [nM] | DC50 [2] [nM] | IC50 [1] [nM] | SMILES
1 |  | 0.045 | 0.18 | COc1ccc(C#CCNC2(C)CCN(C3CCN(c4nc(C(CO)(OC5CC5)c5ccccc5)c5cc(-c6cn(C)c(=O)c7[nH]ccc67)ccc5n4)CC3)CC2)cc1N1CCC(=O)NC1=O (stereo in doubt) [Example 145, (R)-1-(5-(3-((1′-(4-(1-Cyclopropoxy-2-hydroxy-1-phenylethyl)-6-(6-methyl-7-oxo-6,7-dihydro-1H-pyrrolo[2,3-c]pyridin-4-yl)quinazolin-2-yl)-4-methyl-[1,4′-bipiperidin]-4-yl)amino)prop-1-yn-1-yl)-2-methoxyphenyl)dihydropyrimidine-2,4(1H,3H)-dione]
2 | 0.23 | 0.21 |  | COc1ccc(C(=O)NC2(C)CCN(CC3CCN(c4nc(C(CO)(OC5CC5)c5ccccc5)c5cc(-c6cn(C)c(=O)c7occc67)ccc5n4)CC3)CC2)cc1N1CCC(=O)NC1=O (centres unmarked) [Example 108, N-(1-((1-(4-(1-Cyclopropoxy-2-hydroxy-1-phenylethyl)-6-(6-methyl-7-oxo-6,7-dihydrofuro[2,3-c]pyridin-4-yl)quinazolin-2-yl)piperidin-4-yl)methyl)-4-methylpiperidin-4-yl)-3-(2,4-dioxotetrahydropyrimidine-1(2H)-yl)-4-methoxybenzamide]
3 | 0.073 | 0.15 |  | COc1ccc(C(=O)NC2(C)CCN(C3CCN(c4nc([C@@](CO)(OC5CC5)c5ccccc5)c5cc(-c6cn(C)c(=O)c7[nH]ccc67)ccc5n4)CC3)CC2)cc1N1CCC(=O)NC1=O (stereo in doubt) [Example 104, N-(1′-(4-(1-Cyclopropoxy-2-hydroxy-1-phenylethyl)-6-(6-methyl-7-oxo-6,7-dihydro-1H-pyrrolo[2,3-c]pyridin-4-yl)quinazolin-2-yl)-4-methyl-[1,4′-bipiperidin]-4-yl)-3-(2,4-dioxotetrahydropyrimidine-1(2H)-yl)-4-methoxybenzamide]

Further lines, the compound ahead of its results:

Row | SMILES | IC50 ([1]; Homo sapiens, ASPC1, 120 h) [nM] | DC50 [2] [nM] | IC50 [1] [nM]
4 | Cn1cc(-c2ccc3nc(N4CC(OC5CCN(C(=O)c6cccc(N7CCC(=O)NC7=O)c6)CC5)C4)nc([C@@](CO)(OC4CC4)c4ccccc4)c3c2)c2cc[nH]c2c1=O [Example 103, (S)-1-(3-(4-((1-(4-(1-Cyclopropoxy-2-hydroxy-1-phenylethyl)-6-(6-methyl-7-oxo-6,7-dihydro-1H-pyrrolo[2,3-c]pyridin-4-yl)quinazolin-2-yl)azetidin-3-yl)oxy)piperidine-1-carbonyl)phenyl)dihydropyrimidine-2,4(1H,3H)-dione] | 0.073 | 0.045 | 
5 | COc1ccc(C#CCNC2(C)CCN(C3CCN(c4nc(C(CO)(OC5CC5)c5ccccc5)c5cc(-c6cn(C)c(=O)c7[nH]ccc67)ccc5n4)CC3)CC2)cc1N1CCC(=O)NC1=O (centres unmarked) [Example 144, 1-(5-(3-((1′-(4-(1-Cyclopropoxy-2-hydroxy-1-phenylethyl)-6-(6-methyl-7-oxo-6,7-dihydro-1H-pyrrolo[2,3-c]pyridin-4-yl)quinazolin-2-yl)-4-methyl-[1,4′-bipiperidin]-4-yl)amino)prop-1-yn-1-yl)-2-methoxyphenyl)dihydropyrimidine-2,4(1H,3H)-dione] | 0.13 | 0.11 | 
6 | CCCC(CO)(CCC)c1nc(N2CCC(OC3CCN(C(=O)c4ccc(OC)c(N5CCC(=O)NC5=O)c4)CC3)CC2)nc2ccc(-c3cn(C)c(=O)cc3OC)cc12 [Example 126, 1-(5-(4-((1-(4-(4-(Hydroxymethyl)heptan-4-yl)-6-(4-methoxy-1-methyl-6-oxo-1,6-dihydropyridin-3-yl)quinazolin-2-yl)piperidin-4-yl)oxy)piperidine-1-carbonyl)-2-methoxyphenyl)dihydropyrimidine-2,4(1H,3H)-dione] | 0.084 | 0.05 | 
7 | COc1ccc(C(=O)N2C[C@H](C)N(CC3CCN(c4nc([C@@](CN)(OC5CC5)c5ccccc5)c5cc(-c6cn(C)c(=O)c7[nH]ccc67)ccc5n4)CC3)C[C@H]2C)cc1N1CCC(=O)NC1=O [Example 115, 1-(5-((2R,5 S)-4-((1-(4-((R)-2-Amino-1-cyclopropoxy-1-phenylethyl)-6-(6-methyl-7-oxo-6,7-dihydro-1H-pyrrolo[2,3-c]pyridin-4-yl)quinazolin-2-yl)piperidin-4-yl)methyl)-2,5-dimethylpiperazine-1-carbonyl)-2-methoxyphenyl)dihydropyrimidine-2,4-(1H,3H)-dione] | 0.11 | 0.15 | 
8 | Cc1ccc(C(=O)N2C[C@H](C)N(C3CCN(c4nc(C(CO)(OC5CC5)c5cccc(O)c5)c5cc(-c6cn(C)c(=O)c7[nH]ccc67)ccc5n4)CC3)C[C@H]2C)cc1N1CCC(=O)NC1=O (stereo partly drawn) [Example 127, 1-(5-((2R,5S)-4-(1-(4-(1-Cyclopropoxy-2-hydroxy-1-(3-hydroxyphenyl)ethyl)-6-(6-methyl-7-oxo-6,7-dihydro-1H-pyrrolo[2,3-c]pyridin-4-yl)quinazolin-2-yl)piperidin-4-yl)-2,5-dimethylpiperazine-1-carbonyl)-2-methylphenyl)dihydropyrimidine-2,4-(1H,3H)-dione] | 0.17 | 0.6 | 
9 | CNCCN(C)C(=O)OCC(OC1CC1)(c1ccccc1)c1nc(N2CCC(C#Cc3ccc(OC)c(N4CCC(=O)NC4=O)c3)CC2)nc2ccc(-c3cn(C)c(=O)c4[nH]ccc34)cc12 (centres unmarked) [Example 120, 2-Cyclopropoxy-2-(2-(4-((3-(2,4-dioxotetrahydropyrimidine-1(2H)-yl)-methoxyphenyl)ethynyl)piperidin-1-yl)-6-(6-methyl-7-oxo-6,7-dihydro-1H-pyrrolo[2,3-c]pyridin-4-yl)quinazolin-4-yl)-2-phenylethyl methyl(2-(methylamino)ethyl)carbamate] | 0.58 | 2.9 | 
10 | CNCCN(C)C(=O)OCC(OC1CC1)(c1ccccc1)c1nc(N2CCC(CN3C[C@@H](C)N(C(=O)c4ccc(OC)c(N5CCC(=O)NC5=O)c4)C[C@@H]3C)CC2)nc2ccc(-c3cn(C)c(=O)c4[nH]ccc34)cc12 (stereo partly drawn) [Example 119, 2-Cyclopropoxy-2-(2-(4-(((2S,5R)-4-(3-(2,4-dioxotetrahydropyrimidine-1(2H)-yl)-4-methoxybenzoyl)-2,5-dimethylpiperazin-1-yl)methyl)piperidin-1-yl)-6-(6-methyl-7-oxo-6,7-dihydro-1H-pyrrolo[2,3-c]pyridin-4-yl)quinazolin-4-yl)-2-phenylethyl methyl(2-(methylamino)ethyl)carbamate] | 0.23 | 1.6 | 
